The results in this text go back to patent US20190100534A1, “Cephem Compounds with Latent Reactive Groups” (Gladius Pharmaceuticals, Inc., priority 2017, published 2019).

Each structure is given as a SMILES string.

Common to all, as to experiment: MIC determination
Assay type in all cases: cell-based

The test system of test [1] is Pseudomonas aeruginosa PA (RR-1). Conditions: Pseudomonas aeruginosa; PA (RR-1); CAMH broth, 20 μM Apo-Transferrin, 37° C., 18 hours; read-out: Minimum Inhibitory Concentrations, PA (RR-1). The essentials:
(§1)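 Broth microdilution in CAMH + 20 μM apo-transferrin; inoculum 0.5 McFarland, used within 30 min. Compound 64→0.125 μg/mL, twofold steps. 37 °C, 18 h. MIC = lowest clear-well concentration.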

The test system of test [2] is Pseudomonas aeruginosa PA (URMC-2). The following applies: Pseudomonas aeruginosa; PA (URMC-2); CAMH broth, 20 μM Apo-Transferrin, 37° C., 18 hours; read-out: Minimum Inhibitory Concentrations, PA (URMC-2). The essentials:
as §1

In test [3] the test system is Pseudomonas aeruginosa PA-RR-(980151052). The following applies: Pseudomonas aeruginosa; PA-RR-(980151052); CAMH broth, 20 μM Apo-Transferrin, 37° C., 18 hours; read-out: Minimum Inhibitory Concentrations, PA-RR-(980151052). The essentials: as §1
For test [4], the system named is Pseudomonas aeruginosa PA (RR-2). The following applies: Pseudomonas aeruginosa; PA (RR-2); CAMH broth, 20 μM Apo-Transferrin, 37° C., 18 hours; read-out: Minimum Inhibitory Concentrations, PA (RR-2). In a few lines: as §1
Test [5] relates to Pseudomonas aeruginosa PA-RR-(G7305586). Conditions: Pseudomonas aeruginosa; PA-RR-(G7305586); CAMH broth, 20 μM Apo-Transferrin, 37° C., 18 hours; read-out: Minimum Inhibitory Concentrations, PA-RR-(G7305586). In a few lines:
as §1

Test [6] has as its system Pseudomonas aeruginosa PA-RR-(purple Fre D). The following applies: Pseudomonas aeruginosa, CAMH broth, 20 μM Apo-Transferrin, 37° C., 18 hours, read-out: Minimum Inhibitory Concentrations, PA-RR-(purple Fre D). The essentials:
as §1

For test [7], the system named is Pseudomonas aeruginosa (PA). Conditions: Pseudomonas aeruginosa; PA; CAMH broth, 20 μM Apo-Transferrin, 37° C., 18 hours; read-out: Minimum Inhibitory Concentrations, PA. The essentials:
as §1

Take `Cn1c[n+](Cc2ccc(C=CC3=C(C(=O)O)N4C(=O)[C@@H](NC(=O)/C(=N\OC(C)(C)C(=O)O)c5csc(N)n5)[C@H]4SC3)cc2)cc1C(=O)Nc1ccc(O)c(O)c1` (mixture of isomers) [Compound 411, 3-(4-((E/Z)-2-((6R,7R)-7-((Z)-2-(2-aminothiazol-4-yl)-2-(((2-carboxypropan-2-yl)oxy)imino)acetamido)-2-carboxy-8-oxo-5-thia-1-azabicyclo[4.2.0]oct-2-en-3-yl)vinyl)benzyl)-5-((3,4-dihydroxyphenyl)carbamoyl)-1-methyl-1H-imidazol-3-ium]: the MIC in test [1] was 4 µg/mL; in test [2] it was 4 µg/mL; in test [3] it was 8 µg/mL; in test [4], 4 µg/mL; in test [5] it was 16 µg/mL; in test [6] it was 2 µg/mL. Further, the MIC in test [7] is 8 µg/mL.

As to `CC(C)(O/N=C(\C(=O)N[C@@H]1C(=O)N2C(C(=O)O)=C(C=Cc3ccc(C[N+](C)(C)Cc4ccc(O)c(O)c4)cc3)CS[C@H]12)c1csc(N)n1)C(=O)O` (mixture of isomers) [Compound 426, N-(4-((E/Z)-2-((6R,7R)-7-((Z)-2-(2-aminothiazol-4-yl)-2-(((2-carboxypropan-2-yl)oxy)imino)acetamido)-2-carboxy-8-oxo-5-thia-1-azabicyclo[4.2.0]oct-2-en-3-yl)vinyl)benzyl)-1-(3,4-dihydroxyphenyl)-N,N-dimethylmethanaminium], the MIC stood at 4 µg/mL in test [1]; 4 µg/mL in test [2]; 4 µg/mL in test [3]; 2 µg/mL in test [4]; 4 µg/mL in test [5]; 1 µg/mL in test [6]. Moreover, the MIC in test [7] came to 4 µg/mL.

`CC(C)(O/N=C(\C(=O)N[C@@H]1C(=O)N2C(C(=O)O)=C(C=Cc3ccc(C[N+](C)(C)Cc4ccc(O)c(O)c4Cl)cc3)CS[C@H]12)c1csc(N)n1)C(=O)O` (mixture of isomers) [Compound 434, N-(4-((E/Z)-2-((6R,7R)-7-((Z)-2-(2-aminothiazol-4-yl)-2-(((2-carboxypropan-2-yl)oxy)imino)acetamido)-2-carboxy-8-oxo-5-thia-1-azabicyclo[4.2.0]oct-2-en-3-yl)vinyl)benzyl)-1-(2-chloro-3,4-dihydroxyphenyl)-N,N-dimethylmethanaminium]: the MIC amounted to 1 µg/mL in test [1]; 8 µg/mL in test [2]; 4 µg/mL in test [3]; 2 µg/mL in test [4]; 8 µg/mL in test [5]; 2 µg/mL in test [6]. The MIC in test [7] came to 4 µg/mL.

For `Cc1c[n+](Cc2ccc(C=CC3=C(C(=O)O)N4C(=O)[C@@H](NC(=O)/C(=N\OC(C)(C)C(=O)O)c5csc(N)n5)[C@H]4SC3)cc2)ccc1-c1ccc(O)c(O)c1` (mixture of isomers) [Compound 422, 1-(4-((E/Z)-2-((6R,7R)-7-((Z)-2-(2-aminothiazol-4-yl)-2-(((2-carboxypropan-2-yl)oxy)imino)acetamido)-2-carboxy-8-oxo-5-thia-1-azabicyclo[4.2.0]oct-2-en-3-yl)vinyl)benzyl)-4-(3,4-dihydroxyphenyl)-3-methylpyridin-1-ium], the MIC amounted to 4 µg/mL in test [1]; 4 µg/mL in test [2]; 8 µg/mL in test [3]; 2 µg/mL in test [4]; 16 µg/mL in test [5]; 1 µg/mL in test [6]. The MIC in test [7] was determined as 8 µg/mL.

As to `CC(C)(O/N=C(\C(=O)N[C@@H]1C(=O)N2C(C(=O)O)=C(C=Cc3ccc(C[n+]4cccc(-c5ccc(O)c(O)c5)c4)cc3)CS[C@H]12)c1csc(N)n1)C(=O)O` (mixture of isomers) [Compound 413, 1-(4-((E/Z)-2-((6R,7R)-7-((Z)-2-(2-aminothiazol-4-yl)-2-(((2-carboxypropan-2-yl)oxy)imino)acetamido)-2-carboxy-8-oxo-5-thia-1-azabicyclo[4.2.0]oct-2-en-3 yl)vinyl)benzyl)-3-(3,4-dihydroxyphenyl)pyridin-1-ium], the MIC is 4 µg/mL in test [1]; 4 µg/mL in test [2]; 4 µg/mL in test [3]; 2 µg/mL in test [4]; 8 µg/mL in test [5]; 2 µg/mL in test [6]. In test [7], the MIC stood at 4 µg/mL.

Regarding `CC(C)(O/N=C(\C(=O)N[C@@H]1C(=O)N2C(C(=O)O)=C(C=Cc3ccc(C[n+]4ccc(NC(=O)c5ccc(O)c(O)c5)cc4)cc3)CS[C@H]12)c1csc(N)n1)C(=O)O` (mixture of isomers) [Compound 427, 1-(4-((E/Z)-2-((6R,7R)-7-((Z)-2-(2-aminothiazol-4-yl)-2-(((2-carboxypropan-2-yl)oxy)imino)acetamido)-2-carboxy-8-oxo-5-thia-1-azabicyclo[4.2.0]oct-2-en-3-yl)vinyl)benzyl)-4-(3,4-dihydroxybenzamido)pyridin-1-ium], the MIC was 4 µg/mL in test [1]; 0.06 µg/mL in test [2]; 0.5 µg/mL in test [3]; ≤ 0.06 µg/mL in test [4]; 8 µg/mL in test [5]; 0.25 µg/mL in test [6]. For the same molecule, in test [7], the MIC was found to be 0.06 µg/mL.

For `CC(C)(O/N=C(\C(=O)N[C@@H]1C(=O)N2C(C(=O)O)=C(C=Cc3ccc(C[N+](C)(C)Cc4cc(O)c(O)c(Cl)c4)cc3)CS[C@H]12)c1csc(N)n1)C(=O)O` (mixture of isomers) [Compound 436, N-(4-((E/Z)-2-((6R,7R)-7-((Z)-2-(2-aminothiazol-4-yl)-2-(((2-carboxypropan-2-yl)oxy)imino)acetamido)-2-carboxy-8-oxo-5-thia-1-azabicyclo[4.2.0]oct-2-en-3-yl)vinyl)benzyl)-1-(3-chloro-4,5-dihydroxyphenyl)-N,N-dimethylmethanaminium], the MIC in test [1] stood at 2 µg/mL; in test [2] it was 8 µg/mL; in test [3], 4 µg/mL; in test [4] it was 4 µg/mL; in test [5], 8 µg/mL; in test [6], 2 µg/mL. For the same molecule, the MIC in test [7] was 8 µg/mL.

In the case of `CC(C)(O/N=C(\C(=O)N[C@@H]1C(=O)N2C(C(=O)O)=C(C=Cc3ccc(C[N+]4(C)Cc5cc(O)c(O)cc5C4)cc3)CS[C@H]12)c1csc(N)n1)C(=O)O` (mixture of isomers) [Compound 424, 2-(4-((E/Z)-2-((6R,7R)-7-((Z)-2-(2-aminothiazol-4-yl)-2-(((2-carboxypropan-2-yl)oxy)imino)acetamido)-2-carboxy-8-oxo-5-thia-1-azabicyclo[4.2.0]oct-2-en-3-yl)vinyl)benzyl)-5,6-dihydroxy-2-methylisoindolin-2-ium], the MIC in test [1] amounted to 4 µg/mL; in test [2] it was 4 µg/mL; in test [3] it was 4 µg/mL; in test [4] it was 4 µg/mL; in test [5], 8 µg/mL; in test [6], 2 µg/mL. Also, the MIC in test [7] is 2 µg/mL.
